The source of these data is publication PMC8429728, “TNK1 is a ubiquitin-binding and 14-3-3-regulated kinase that can be targeted to block tumor growth” (Nature Communications, 2021).

Some targets named below: TGFBR2 (Homo sapiens, UniProt P37173); COT1/MAP3K8 (Homo sapiens, UniProt P41279); HIPK1 (Homo sapiens, UniProt Q86Z02); HPK1/MAP4K1 (Homo sapiens, UniProt Q92918); LOK/STK10 (Homo sapiens, UniProt O94804); VRK2 (Homo sapiens, UniProt Q86Y07); TTBK2 (Homo sapiens, UniProt Q6IQ55).
Common to all, as to test: biochemical
Holding throughout (parameters): Reaction Biology kinase panel, control compounds in 10-dose IC50 mode at Km ATP

The next experiment concerns the target T1, ERK1 (Homo sapiens, UniProt P27361).
T1 construct: gene MAPK3

A further experiment addresses T2, ARAF (Homo sapiens, UniProt P10398).
T2 sequence (P10398 1-606): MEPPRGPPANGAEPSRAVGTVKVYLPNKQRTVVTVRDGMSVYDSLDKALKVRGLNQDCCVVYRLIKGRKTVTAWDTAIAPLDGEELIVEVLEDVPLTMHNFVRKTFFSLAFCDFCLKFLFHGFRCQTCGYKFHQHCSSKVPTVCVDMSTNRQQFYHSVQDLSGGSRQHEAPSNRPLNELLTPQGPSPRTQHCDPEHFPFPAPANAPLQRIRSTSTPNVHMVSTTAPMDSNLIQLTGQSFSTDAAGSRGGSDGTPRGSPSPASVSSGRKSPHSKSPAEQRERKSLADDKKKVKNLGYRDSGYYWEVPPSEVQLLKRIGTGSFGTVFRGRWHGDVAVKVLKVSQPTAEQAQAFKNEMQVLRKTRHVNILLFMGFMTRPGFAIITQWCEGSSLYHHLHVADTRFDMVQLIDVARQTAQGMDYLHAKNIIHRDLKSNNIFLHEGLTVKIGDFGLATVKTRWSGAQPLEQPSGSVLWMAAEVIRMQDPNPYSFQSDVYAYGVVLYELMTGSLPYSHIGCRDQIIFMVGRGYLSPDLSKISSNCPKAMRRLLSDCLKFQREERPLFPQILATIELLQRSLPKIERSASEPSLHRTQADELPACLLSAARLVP

The target of the next experiment is T3, CK2a (Homo sapiens, UniProt P68400).
T3 construct: gene CSNK2A1
T3 sequence (P68400 whole entry): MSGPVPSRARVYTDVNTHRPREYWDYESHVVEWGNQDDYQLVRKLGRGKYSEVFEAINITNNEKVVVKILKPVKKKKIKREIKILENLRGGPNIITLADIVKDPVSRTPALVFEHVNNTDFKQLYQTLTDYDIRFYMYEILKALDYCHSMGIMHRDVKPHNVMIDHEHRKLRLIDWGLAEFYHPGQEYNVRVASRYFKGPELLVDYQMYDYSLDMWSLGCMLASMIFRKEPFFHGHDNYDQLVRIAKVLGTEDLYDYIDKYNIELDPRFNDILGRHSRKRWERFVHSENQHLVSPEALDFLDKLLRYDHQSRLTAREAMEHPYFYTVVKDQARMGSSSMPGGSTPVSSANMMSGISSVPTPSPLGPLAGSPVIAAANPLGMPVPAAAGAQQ

A further experiment concerns the target T4, DYRK4 (Homo sapiens, UniProt Q9NR20).
T4 sequence (Q9NR20 1-520): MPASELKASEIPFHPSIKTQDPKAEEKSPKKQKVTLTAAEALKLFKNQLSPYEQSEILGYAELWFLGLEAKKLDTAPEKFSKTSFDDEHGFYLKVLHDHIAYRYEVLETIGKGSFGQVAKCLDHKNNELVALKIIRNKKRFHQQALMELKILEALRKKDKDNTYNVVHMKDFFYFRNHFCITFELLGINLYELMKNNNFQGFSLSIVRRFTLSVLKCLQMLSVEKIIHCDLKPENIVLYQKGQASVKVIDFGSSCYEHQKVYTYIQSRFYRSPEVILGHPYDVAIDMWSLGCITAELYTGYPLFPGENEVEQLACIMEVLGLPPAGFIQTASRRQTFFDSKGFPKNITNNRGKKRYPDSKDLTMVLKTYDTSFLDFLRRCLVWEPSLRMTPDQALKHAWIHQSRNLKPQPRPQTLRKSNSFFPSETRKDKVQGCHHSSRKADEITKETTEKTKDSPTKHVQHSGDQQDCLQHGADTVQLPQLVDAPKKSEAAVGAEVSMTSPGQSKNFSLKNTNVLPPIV

Another experiment deals with T5, ZAK/MLTK (Homo sapiens, UniProt Q9NYL2).
T5 construct: gene MAP3K20

Another experiment has as its target T6, PKMYT1 (Homo sapiens, UniProt Q99640).
T6 sequence (Q99640 1-499): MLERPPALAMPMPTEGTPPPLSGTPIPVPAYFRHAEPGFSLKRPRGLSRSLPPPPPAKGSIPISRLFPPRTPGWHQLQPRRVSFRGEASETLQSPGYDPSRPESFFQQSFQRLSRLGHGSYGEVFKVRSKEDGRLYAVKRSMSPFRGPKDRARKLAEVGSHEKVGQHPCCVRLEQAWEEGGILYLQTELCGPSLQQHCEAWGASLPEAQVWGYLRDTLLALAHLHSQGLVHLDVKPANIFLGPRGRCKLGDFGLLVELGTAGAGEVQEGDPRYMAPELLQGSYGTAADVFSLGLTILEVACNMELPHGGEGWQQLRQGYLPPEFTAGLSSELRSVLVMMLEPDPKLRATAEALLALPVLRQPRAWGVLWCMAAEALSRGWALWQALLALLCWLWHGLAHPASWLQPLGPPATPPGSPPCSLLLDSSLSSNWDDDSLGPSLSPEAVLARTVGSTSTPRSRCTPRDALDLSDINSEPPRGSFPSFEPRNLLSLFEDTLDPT

A further experiment concerns the target TTBK1 (Homo sapiens, UniProt Q5TCY1). Particulars: control compound, Km ATP; read-out: IC50 (M) Control Cmpd.

Sequence of COT1/MAP3K8 (P41279 whole entry): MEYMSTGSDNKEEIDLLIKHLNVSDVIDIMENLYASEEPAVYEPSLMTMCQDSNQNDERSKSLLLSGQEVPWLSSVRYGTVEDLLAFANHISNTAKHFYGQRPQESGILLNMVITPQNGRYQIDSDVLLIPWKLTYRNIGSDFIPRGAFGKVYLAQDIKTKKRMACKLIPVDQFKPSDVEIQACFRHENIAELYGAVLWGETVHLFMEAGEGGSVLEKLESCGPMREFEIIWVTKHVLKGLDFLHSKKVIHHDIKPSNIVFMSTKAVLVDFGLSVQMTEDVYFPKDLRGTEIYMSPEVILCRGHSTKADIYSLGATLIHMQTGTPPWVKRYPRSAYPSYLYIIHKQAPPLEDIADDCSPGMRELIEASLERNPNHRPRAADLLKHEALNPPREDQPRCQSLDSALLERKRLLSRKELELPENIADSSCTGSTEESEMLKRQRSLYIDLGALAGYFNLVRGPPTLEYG
Sequence of HPK1/MAP4K1 (Q92918 whole entry): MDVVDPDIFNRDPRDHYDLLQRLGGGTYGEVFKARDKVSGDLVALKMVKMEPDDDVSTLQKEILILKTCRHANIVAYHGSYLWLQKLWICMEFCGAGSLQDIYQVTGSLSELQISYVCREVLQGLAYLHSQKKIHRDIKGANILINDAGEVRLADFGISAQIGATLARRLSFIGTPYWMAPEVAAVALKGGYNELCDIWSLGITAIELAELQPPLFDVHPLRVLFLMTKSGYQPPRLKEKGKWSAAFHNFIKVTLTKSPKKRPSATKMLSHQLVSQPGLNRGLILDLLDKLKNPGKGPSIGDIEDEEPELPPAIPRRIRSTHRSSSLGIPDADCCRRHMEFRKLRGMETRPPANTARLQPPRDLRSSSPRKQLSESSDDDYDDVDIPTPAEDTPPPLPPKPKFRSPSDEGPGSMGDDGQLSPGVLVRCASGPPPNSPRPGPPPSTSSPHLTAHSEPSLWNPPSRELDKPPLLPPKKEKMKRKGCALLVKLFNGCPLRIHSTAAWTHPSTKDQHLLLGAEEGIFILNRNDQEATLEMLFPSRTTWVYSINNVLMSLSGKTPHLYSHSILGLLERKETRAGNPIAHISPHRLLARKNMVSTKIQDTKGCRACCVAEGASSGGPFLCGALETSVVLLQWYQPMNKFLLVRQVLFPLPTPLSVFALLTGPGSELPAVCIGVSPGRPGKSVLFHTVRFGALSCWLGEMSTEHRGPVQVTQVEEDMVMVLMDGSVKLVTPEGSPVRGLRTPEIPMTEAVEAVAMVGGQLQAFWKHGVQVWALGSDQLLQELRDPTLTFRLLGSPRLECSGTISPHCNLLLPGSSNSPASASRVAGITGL
Sequence of TGFBR2 (P37173 whole entry): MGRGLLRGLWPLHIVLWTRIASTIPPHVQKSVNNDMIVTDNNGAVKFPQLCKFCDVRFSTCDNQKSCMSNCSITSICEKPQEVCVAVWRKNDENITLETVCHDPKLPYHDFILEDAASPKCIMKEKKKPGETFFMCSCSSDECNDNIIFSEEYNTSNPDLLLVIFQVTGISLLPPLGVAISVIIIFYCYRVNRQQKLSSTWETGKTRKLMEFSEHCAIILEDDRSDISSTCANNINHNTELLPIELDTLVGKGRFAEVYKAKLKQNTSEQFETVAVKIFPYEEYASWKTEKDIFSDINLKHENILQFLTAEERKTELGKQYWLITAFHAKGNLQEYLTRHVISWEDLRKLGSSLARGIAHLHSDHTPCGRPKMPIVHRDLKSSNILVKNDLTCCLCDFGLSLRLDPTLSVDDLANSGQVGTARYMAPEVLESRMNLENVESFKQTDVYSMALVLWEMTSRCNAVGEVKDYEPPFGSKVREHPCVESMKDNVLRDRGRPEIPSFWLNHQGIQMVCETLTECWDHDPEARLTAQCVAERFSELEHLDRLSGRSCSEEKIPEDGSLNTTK
Sequence of VRK2 (Q86Y07 whole entry): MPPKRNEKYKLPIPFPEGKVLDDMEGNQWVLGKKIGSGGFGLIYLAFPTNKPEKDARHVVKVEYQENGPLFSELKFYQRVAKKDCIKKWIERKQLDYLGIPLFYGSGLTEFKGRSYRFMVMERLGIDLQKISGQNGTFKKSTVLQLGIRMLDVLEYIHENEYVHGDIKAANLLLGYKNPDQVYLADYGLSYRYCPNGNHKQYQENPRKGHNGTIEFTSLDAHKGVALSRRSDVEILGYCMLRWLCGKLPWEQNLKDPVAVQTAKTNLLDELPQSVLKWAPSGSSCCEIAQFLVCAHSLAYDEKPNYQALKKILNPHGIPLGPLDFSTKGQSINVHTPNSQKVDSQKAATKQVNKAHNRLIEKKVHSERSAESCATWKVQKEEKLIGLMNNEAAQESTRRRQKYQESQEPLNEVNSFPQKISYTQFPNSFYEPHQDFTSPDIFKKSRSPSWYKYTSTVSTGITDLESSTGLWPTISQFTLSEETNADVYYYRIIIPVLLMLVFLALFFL
Sequence of HIPK1 (Q86Z02 whole entry): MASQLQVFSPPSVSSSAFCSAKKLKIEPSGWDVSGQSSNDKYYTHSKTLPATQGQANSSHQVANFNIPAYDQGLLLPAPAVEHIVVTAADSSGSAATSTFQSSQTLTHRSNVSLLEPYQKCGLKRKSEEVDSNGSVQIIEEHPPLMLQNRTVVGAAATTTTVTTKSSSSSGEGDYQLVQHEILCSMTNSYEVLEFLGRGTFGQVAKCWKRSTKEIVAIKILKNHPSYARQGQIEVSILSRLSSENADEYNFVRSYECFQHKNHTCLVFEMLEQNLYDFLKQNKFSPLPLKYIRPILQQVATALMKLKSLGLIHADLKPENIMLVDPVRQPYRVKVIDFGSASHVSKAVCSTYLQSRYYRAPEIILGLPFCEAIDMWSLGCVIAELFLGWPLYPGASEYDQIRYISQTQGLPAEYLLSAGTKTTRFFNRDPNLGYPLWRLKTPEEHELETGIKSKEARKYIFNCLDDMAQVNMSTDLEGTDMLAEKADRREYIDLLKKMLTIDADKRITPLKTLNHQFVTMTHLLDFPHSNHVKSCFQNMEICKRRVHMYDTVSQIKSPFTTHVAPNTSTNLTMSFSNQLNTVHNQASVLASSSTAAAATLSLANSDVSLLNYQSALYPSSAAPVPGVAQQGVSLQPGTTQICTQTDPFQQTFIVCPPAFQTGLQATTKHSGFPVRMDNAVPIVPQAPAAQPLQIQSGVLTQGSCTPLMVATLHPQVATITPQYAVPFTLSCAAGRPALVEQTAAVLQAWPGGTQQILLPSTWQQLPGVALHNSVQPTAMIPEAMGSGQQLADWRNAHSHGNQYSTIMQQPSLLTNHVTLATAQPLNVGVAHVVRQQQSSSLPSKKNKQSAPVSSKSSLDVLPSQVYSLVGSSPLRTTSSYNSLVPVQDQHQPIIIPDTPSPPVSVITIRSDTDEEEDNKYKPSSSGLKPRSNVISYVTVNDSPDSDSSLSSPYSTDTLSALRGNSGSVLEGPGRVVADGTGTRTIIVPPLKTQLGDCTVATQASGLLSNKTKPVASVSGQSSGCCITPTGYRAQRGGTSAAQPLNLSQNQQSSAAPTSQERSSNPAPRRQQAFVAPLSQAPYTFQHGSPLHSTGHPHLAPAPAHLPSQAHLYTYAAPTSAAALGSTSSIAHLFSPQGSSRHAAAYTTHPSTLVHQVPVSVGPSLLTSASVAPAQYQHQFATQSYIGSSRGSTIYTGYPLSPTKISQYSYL
T1 sequence (P27361 whole entry): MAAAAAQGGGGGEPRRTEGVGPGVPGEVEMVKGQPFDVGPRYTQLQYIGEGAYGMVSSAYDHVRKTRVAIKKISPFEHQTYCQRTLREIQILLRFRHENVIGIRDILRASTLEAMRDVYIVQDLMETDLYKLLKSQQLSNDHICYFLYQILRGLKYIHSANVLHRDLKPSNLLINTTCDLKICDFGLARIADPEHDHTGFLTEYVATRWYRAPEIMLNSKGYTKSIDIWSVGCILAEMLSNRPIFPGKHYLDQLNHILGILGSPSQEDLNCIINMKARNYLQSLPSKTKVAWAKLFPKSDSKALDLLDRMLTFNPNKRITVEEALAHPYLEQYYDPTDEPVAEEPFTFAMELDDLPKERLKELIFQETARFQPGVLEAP

On ERK1, `O=C(Nc1ccc2[nH]nc(-c3ccncc3)c2c1)[C@@H]1CCN(CC(=O)N2CCN(c3ccc(-c4ncccn4)cc3)CC2)C1` [SCH772984] gave an IC50 of 9.34 nM.
As to `O=C1Nc2ccc(I)cc2/C1=C/c1cc(Br)c(O)c(Br)c1` [GW5074], the IC50 turned out to be 15.1 nM at ARAF, 231 nM against CK2a, 1610 nM at DYRK4 and 3110 nM on ZAK/MLTK.
In the case of `c1ccc2c(-c3cnn4cc(-c5ccc(N6CCNCC6)cc5)cnc34)ccnc2c1` [LDN193189], the midpoint of inhibition against TGFBR2, the IC50, lay at 54.8 nM.
Compound `CN[C@@H]1C[C@H]2O[C@@](C)([C@@H]1OC)n1c3ccccc3c3c4c(c5c6ccccc6n2c5c31)C(=O)NC4` [STAUROSPORINE] had an IC50 at PKMYT1 of 10.4 nM.
Consider `Cn1cc(C2=C(c3cn(CCCSC(=N)N)c4ccccc34)C(=O)NC2=O)c2ccccc21` [RO-31-8220], for which the IC50 against COT1/MAP3K8 came to 10200 nM; against HIPK1, 3060 nM; against HPK1/MAP4K1, 51 nM; against LOK/STK10 it was 141 nM; at VRK2, 5730 nM.
Take `Oc1ccc(-c2nc(-c3ccncc3)c(-c3ccc(F)cc3)[nH]2)cc1` [SB202190]: the results for the IC50 at TTBK2 and on TTBK1 were 5470 nM and 1.31e-05 M, respectively.
